We go through 4 molecules from PMC3383692, “Characterization of Plasmodium falciparum Adenylyl Cyclase-β and Its Role in Erythrocytic Stage Parasites” (PLoS ONE, 2012).

Like-named read-outs stand apart in the source and are kept apart here.

Data set [1] deals with T1, PfACα (Plasmodium falciparum, UniProt Q8I7A1).
T1 construct: gene ac1
T1 sequence (Q8I7A1 1-884): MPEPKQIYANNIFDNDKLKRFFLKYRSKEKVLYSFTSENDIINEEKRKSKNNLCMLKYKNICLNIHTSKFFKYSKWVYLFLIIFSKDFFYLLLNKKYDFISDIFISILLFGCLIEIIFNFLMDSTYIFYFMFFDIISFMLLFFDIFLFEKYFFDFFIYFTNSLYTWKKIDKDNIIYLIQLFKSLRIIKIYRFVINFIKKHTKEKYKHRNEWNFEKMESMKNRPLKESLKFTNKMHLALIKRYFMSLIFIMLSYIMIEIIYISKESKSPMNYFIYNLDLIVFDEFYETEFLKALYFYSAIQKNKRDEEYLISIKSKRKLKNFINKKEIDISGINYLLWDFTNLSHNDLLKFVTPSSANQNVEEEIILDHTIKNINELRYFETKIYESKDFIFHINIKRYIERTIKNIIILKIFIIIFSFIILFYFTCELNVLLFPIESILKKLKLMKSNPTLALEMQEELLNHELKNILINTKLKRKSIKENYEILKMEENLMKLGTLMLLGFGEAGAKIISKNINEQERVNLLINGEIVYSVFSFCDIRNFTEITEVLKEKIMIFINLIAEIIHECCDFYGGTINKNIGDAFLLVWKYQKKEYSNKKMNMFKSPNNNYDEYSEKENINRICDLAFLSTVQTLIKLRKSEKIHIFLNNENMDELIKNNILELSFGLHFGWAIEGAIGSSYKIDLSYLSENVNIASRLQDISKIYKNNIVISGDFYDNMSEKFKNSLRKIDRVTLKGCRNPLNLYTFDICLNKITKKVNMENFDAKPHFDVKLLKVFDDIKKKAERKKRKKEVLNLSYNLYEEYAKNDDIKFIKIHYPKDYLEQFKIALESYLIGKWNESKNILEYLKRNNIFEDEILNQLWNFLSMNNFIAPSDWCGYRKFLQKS
Description: adenylyl cyclase activity in PfACα-expressing Hi5 cells, […] 2-CE. Type of data set: cell-based.

Data set [2] has as its target T2, PfACβ (adenylyl cyclase-β) (Plasmodium falciparum, UniProt C0H4R1).
T2 construct: gene PF3D7_0802600; GST-PfACβ1-785 (catalytic domains, AA 1–785)
T2 sequence (C0H4R1 1-785): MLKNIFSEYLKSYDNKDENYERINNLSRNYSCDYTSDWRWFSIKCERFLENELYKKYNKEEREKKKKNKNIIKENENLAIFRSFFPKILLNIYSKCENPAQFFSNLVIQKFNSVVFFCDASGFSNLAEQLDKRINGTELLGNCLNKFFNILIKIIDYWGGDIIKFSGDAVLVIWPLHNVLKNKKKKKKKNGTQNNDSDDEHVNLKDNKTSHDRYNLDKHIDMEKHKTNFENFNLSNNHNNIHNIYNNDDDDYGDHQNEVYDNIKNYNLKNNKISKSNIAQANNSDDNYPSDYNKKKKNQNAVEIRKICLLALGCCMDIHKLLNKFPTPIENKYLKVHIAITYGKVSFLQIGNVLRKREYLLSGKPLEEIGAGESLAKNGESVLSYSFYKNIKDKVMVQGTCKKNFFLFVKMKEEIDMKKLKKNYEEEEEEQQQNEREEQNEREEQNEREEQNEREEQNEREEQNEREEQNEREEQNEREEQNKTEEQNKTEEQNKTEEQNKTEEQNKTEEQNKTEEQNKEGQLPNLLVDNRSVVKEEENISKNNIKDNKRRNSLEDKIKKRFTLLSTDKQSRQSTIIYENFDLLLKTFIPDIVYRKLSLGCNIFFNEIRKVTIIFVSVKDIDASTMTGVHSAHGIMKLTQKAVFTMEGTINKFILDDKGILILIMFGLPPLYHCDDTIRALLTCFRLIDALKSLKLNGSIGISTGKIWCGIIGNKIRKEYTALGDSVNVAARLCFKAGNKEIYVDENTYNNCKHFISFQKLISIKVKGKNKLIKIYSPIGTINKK
Briefly: radioactive two-column adenylyl cyclase assay with purified GST-PfACβ[…]-785. Type of data set: biochemical.

Substrate in data set [3]: Nc1ncnc2c1ncn2[C@@H]1O[C@H](COP(=O)(O)OP(=O)(O)OP(=O)(O)O)[C@@H](O)[C@H]1O
Briefly: Michaelis-Menten kinetics (Km), adenylyl cyclase assay with purified enzyme. Type of data set: biochemical, Plasmodium falciparum. The following applies: Mn2+ active site; lack of cooperative binding of substrate.

For `C[C@]12CC[C@@H]3c4cc(O)c(O)cc4CC[C@H]3[C@@H]1CC[C@@H]2O` [2-CE, 2-hydroxyestradiol], the “adenylyl cyclase activity in PfACα-expressing Hi5 cells, 50 μM 2-CE” value in data set [1] is recorded as “although PfACα adenylyl cyclase activity was inhibited by 2-CE, it was largely insensitive to KH7 (Figure 4C)”. Besides, the IC50 (in general, the concentration that inhibits the measured activity by half) in data set [2] came out at 8 µM.
Turning to KH7.15, the IC50 in data set [2] (read-out: IC50) worked out at 150 µM.
Regarding `CC(Sc1nc2ccccc2[nH]1)C(=O)N/N=C/c1cc(Br)ccc1O` (racemic) [KH7], the IC50 in data set [2] (read-out: IC50) was 5 µM.

B1: PfACβ (adenylyl cyclase-β) (Plasmodium falciparum 3D7) (protein)
chain: MLKNIFSEYLKSYDNKDENYERINNLSRNYSCDYTSDWRWFSIKCERFLENELYKKYNKEEREKKKKNKNIIKENENLAIFRSFFPKILLNIYSKCENPAQFFSNLVIQKFNSVVFFCDASGFSNLAEQLDKRINGTELLGNCLNKFFNILIKIIDYWGGDIIKFSGDAVLVIWPLHNVLKNKKKKKKKNGTQNNDSDDEHVNLKDNKTSHDRYNLDKHIDMEKHKTNFENFNLSNNHNNIHNIYNNDDDDYGDHQNEVYDNIKNYNLKNNKISKSNIAQANNSDDNYPSDYNKKKKNQNAVEIRKICLLALGCCMDIHKLLNKFPTPIENKYLKVHIAITYGKVSFLQIGNVLRKREYLLSGKPLEEIGAGESLAKNGESVLSYSFYKNIKDKVMVQGTCKKNFFLFVKMKEEIDMKKLKKNYEEEEEEQQQNEREEQNEREEQNEREEQNEREEQNEREEQNEREEQNEREEQNEREEQNKTEEQNKTEEQNKTEEQNKTEEQNKTEEQNKTEEQNKEGQLPNLLVDNRSVVKEEENISKNNIKDNKRRNSLEDKIKKRFTLLSTDKQSRQSTIIYENFDLLLKTFIPDIVYRKLSLGCNIFFNEIRKVTIIFVSVKDIDASTMTGVHSAHGIMKLTQKAVFTMEGTINKFILDDKGILILIMFGLPPLYHCDDTIRALLTCFRLIDALKSLKLNGSIGISTGKIWCGIIGNKIRKEYTALGDSVNVAARLCFKAGNKEIYVDENTYNNCKHFISFQKLISIKVKGKNKLIKIYSPIGTINKK
notes: GST-PfACβ1-785 (catalytic domains, AA 1–785)
Turning to B1, the Km – broadly, the concentration of substrate that gives half-maximal velocity – in data set [3] was found to be 570 µM.
